We go through 69 compounds from PubChem BioAssay AID179 (DTP/NCI, 2004).

The subject of the assay is CEM cells HIV-1 protection, formazan growth assay. The assay is described as follows: NCI AIDS Antiviral Assay. Conditions: for pIC50: measured here: growth of uninfected CEM cells. Summed up: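 Human CEM cells, uninfected and HIV-1-infected, received five drug concentrations, and growth was read by soluble formazan assay. Compounds giving at least 50% protection were retested; reproducible 100% protection defined confirmed active.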

A word on the pEC50: it is the negative decadic logarithm of the EC50, by convention in mol/L. The pIC50 is −log10 of the IC50, conventionally taken in molar units.

pEC50, pIC50: −log10 of the molar value. Where “and” joins values, the source holds several entries; their conditions need not be identical. Identical values can stand only once. Calls of active or inactive are those of the source.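 Rule for the calls: active = compounds giving half or more protection of infected cells from virus-caused growth loss, again on retest; inactive = the rest.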 A value given as a limit tells only on which side of the number the result lay.

Take `O=C(NS(=O)(=O)Nc1ccccc1)OCC1CCCCC1`: the pEC50 is less than 3.70 and the negative logarithm of the IC50 (pIC50) was 3.87.

Turning to `CC(=O)N1c2ccccc2C2=CC3C4C(=O)N(c5ccccc5)C(=O)C4C21C1C(=O)N(c2ccccc2)C(=O)C31` (stereo not drawn), the result was inactive.

As for `Clc1ccc(Nc2nnc(CCCCCCCCc3nnc(Nc4ccc(Cl)cc4)o3)o2)cc1`, the pEC50 is less than 3.70 and the pIC50 is 4.34.

With `CC1(C)CC(=O)c2c(nc3c(ccc4ccccc43)c2-c2ccc(NC(=O)CCCC(=O)Nc3ccc(-c4c5c(nc6c4ccc4ccccc46)CC(C)(C)CC5=O)cc3)cc2)C1`, the pEC50 was less than 4.30 and the pIC50 is less than 4.30.

Take `COC(=O)c1cc(C(=O)Nc2cc(C(=CCC[C@H]3CC[C@@]4(C)[C@@H](CC[C@@H]5[C@@H]4CC[C@]4(C)[C@@H](C(C)CCCC(C)C)CC[C@@H]54)C3)c3cc(NC(=O)c4ccc(OC)c(C(=O)OC)c4)c(OC)c(C(=O)OC)c3)cc(C(=O)OC)c2OC)ccc1OC` (stereo partly drawn): the pEC50 is less than 4.00 and the pIC50 is less than 4.00.

For `CO[C@@H]1C[C@H]2[C@@H]3CC[C@H]([C@@H](C)CO)[C@@]3(C)CC[C@@H]2[C@@]2(C)CC[C@H]3C[C@]312`, the pEC50 was less than 3.70 and the pIC50 is 3.99.

Consider `O=C1[C@@H]2C(c3cccc([N+](=O)[O-])c3)=NO[C@@H]2C(=O)N1c1ccc(Cc2ccc(N3C(=O)[C@H]4C(c5cccc([N+](=O)[O-])c5)=NO[C@H]4C3=O)cc2)cc1`, for which the pEC50 was less than 4.42 and the pIC50 is less than 4.42.

Turning to `C=C(C)Cn1c(N)c(N=O)c(=O)n(CC)c1=O`, the pEC50 is less than 3.70 and the pIC50 is 3.80.

With `CCOc1ccc(NCc2cc(OC)c(OC)c(OC)c2)cc1`, the pEC50 was less than 3.80; the pIC50 was 6.49 and 6.47.

As for `CSc1nc(Cl)c2c(n1)Sc1nc3ccccc3n1N=C2`, the pEC50 was less than 4.00 and the pIC50 was 4.26.

In the case of `N#CCCN(c1ccc(C=Nc2ccc(C(=O)O)cc2)cc1)S(=O)(=O)c1ccccc1`, the pEC50 is less than 3.52 and the pIC50 is less than 3.52.

As to `C=C(CC)C[C@@H]1C[C@]2(C(=O)OC)c3[nH]c4ccccc4c3CCN2C1=O`, the pEC50 is less than 3.70 and the pIC50 is 4.44.

`CC(NCc1c(O)ccc2ccc(=O)oc12)C(=O)O` (stereo not drawn): the pEC50 was less than 3.70 and the pIC50 was less than 3.70.

`Clc1cccc2nncc(N3CC3)c12`: the result was inactive.

Regarding `Cc1ccc(=O)n(Cc2ccccc2)n1`, the pEC50 was less than 2.90 and the pIC50 was 3.04.

Turning to `CC1(C)CC(C#Cc2ccccc2)CC(C)(C)N1O`, the pEC50 was less than 3.70 and the pIC50 was 4.46.

In the case of `CC(=O)N1CCOC12N=NC(C)(C)O2` (stereo not drawn), the pEC50 was less than 3.70 and the pIC50 was less than 3.70.

`NCCCNOCCCN`: the pEC50 was less than 3.70 and the pIC50 is less than 3.70.

Turning to `CCOC(=O)C(=Cn1c(=S)[nH]c2cc(C)ccc21)C(=O)OCC`, the pEC50 is less than 3.70 and the pIC50 is less than 3.70.

Consider `O=C1NC(=O)/C(=C\c2ccccc2)C2=C1CCCC2`, for which the pEC50 was less than 4.13 and the pIC50 is 4.81.

For the compound `CCCCCCCCCCCCCCCC(=O)NC(Cc1c[nH]c2ccccc12)C(=O)O` (stereo not drawn), the pEC50 is less than 3.70 and the pIC50 is 4.30.

Turning to `CCCC(=O)NC(Nc1ccc(S(=O)(=O)Nc2ccc(OC)nn2)cc1)(C(F)(F)F)C(F)(F)F`, the pEC50 is less than 3.70 and the pIC50 was less than 3.70.

Turning to `COC(=O)C(NC(=O)CSc1nnc(COc2ccc(Cl)cc2)n1-c1ccccc1)C(C)C` (stereo not drawn), the pEC50 is less than 3.70 and the pIC50 is 4.92.

For the compound `O=C(c1ccccc1)c1nnn(Cc2cccc(Cl)c2)c1C(=O)c1ccccc1`, the pEC50 was less than 4.89 and the pIC50 is less than 4.89.

Take `C=C(C)[C@H]1Cc2c(ccc3c2O[C@@H]2COc4cc(OC)c(OC)cc4[C@@H]2C3=O)O1`: the pEC50 is less than 5.70 and the negative logarithm of the IC50 (pIC50) was 7.32.

With `CCCCN=C(OC1C=CCCC1)SC` (stereo not drawn), the pEC50 was less than 3.70 and the pIC50 was 3.81.

Regarding `CCOc1ccc(N=C(NC(=O)c2ccccc2)SC)cc1`, the pEC50 was less than 4.65 and the pIC50 is less than 4.65.

Turning to `O=C1[C@H]2ON(c3ccccc3)C(c3ccc([N+](=O)[O-])cc3)[C@H]2C(=O)N1c1ccc(Cc2ccc(N3C(=O)[C@@H]4ON(c5ccccc5)C(c5ccc([N+](=O)[O-])cc5)[C@@H]4C3=O)cc2)cc1` (stereo partly drawn), the pEC50 was less than 5.07 and the pIC50 was less than 5.07.

`COc1cc(C[S+]2CCCC2)c(SC)cc1C[S+]1CCCC1`: the pEC50 is less than 4.08 and the pIC50 is less than 4.08.

In the case of `NC(=O)OCC(O)COc1ccc(Cl)cc1` (stereo not drawn), the pEC50 was less than 3.70 and the pIC50 is less than 3.70.

For the compound `c1ccc(N=C(N2CCCC2)N(CCN2CCCC2)c2ccccc2)cc1`, the pEC50 is less than 3.70 and the pIC50 is 5.03.

Turning to `CCC[CH2][Sn]1([CH2]CCC)[O]C(=O)c2cc(C)ccc2[O]1`, the pEC50 is less than 5.03 and the pIC50 was 5.51.

With `C(=C\N1CCCCC1)/c1nnnn1-c1ccccc1`, the pEC50 is less than 3.70 and the pIC50 was 4.62.

On to `Cc1nn(C(=O)Cc2ccccc2)c2c1C(c1ccccc1O)SC(N)=N2` (stereo not drawn), for which the pEC50 is 4.24 and the pIC50 was 3.40.

On to `CN(C)CCN1CCc2c([nH]c3ccccc23)C1c1cccnc1` (stereo not drawn), for which the pEC50 is less than 5.20 and the pIC50 is less than 5.20.

In the case of `C=C1C(=O)C[C@@]23CCC[C@@]12CC(OCOC)C3` (stereo partly drawn), the result was inactive.

For the compound `CCC(NC(C)c1ccccc1)C(=O)c1ccc(OCc2ccccc2)c(OCc2ccccc2)c1` (stereo not drawn), the pEC50 is less than 3.70 and the pIC50 is less than 3.70.

As to `COC1/C=C/OC2(C)Oc3c(C)c(O)c4c(O)c(c(/C=N/n5c(=O)[nH]c6ccccc6c5=O)c(O)c4c3C2=O)NC(=O)/C(C)=C\C=C\C(C)C(O)C(C)C(O)C(C)C(OC(C)=O)C1C` (stereo not drawn), the pEC50 is less than 3.70 and the pIC50 is 4.53.

`CCN(CC)CC(C)(C)C(=O)/C=C/c1ccc(Cl)cc1`: the pEC50 is less than 3.70 and the pIC50 is 5.14.

For the compound `Cc1ccc(S(=O)(=O)SC(S(=O)(=O)c2ccc(C)cc2)S(=O)(=O)c2ccc(C)cc2)cc1`, the pEC50 is less than 3.45 and the pIC50 was 3.83.

With `CCOC(=O)NC(=O)c1cn(CC(=O)NCC(=O)NCC(=O)N2CCN(CCn3c(C)nc(C(N)=O)c3N)CC2)c(=O)[nH]c1=O`, the outcome was inactive.

On to `CC(=O)/C(=C/N1C(=O)CC(=O)NC1=S)C(=O)Nc1ccccc1`, for which the pEC50 was less than 3.70 and the pIC50 was less than 3.70.

With `COC(=O)c1[nH]c(=S)[nH]c(=O)c1-c1ccc(Cl)cc1`, the pEC50 is 3.60 and the pIC50 was 3.22.

Regarding `N#CCCN(CCCN(C(=O)N(c1ccccc1)c1ccccc1)c1ccccc1)C(=O)Nc1ccccc1`, the pEC50 was less than 3.70 and the pIC50 is 4.98.

`CC(c1ccccc1)n1cncc1C(=O)NN1CCN(C)CC1` (stereo not drawn): the pEC50 was less than 3.70 and the pIC50 was less than 3.70.

As for `CCN(CC)CCCn1c(=O)c2cccnc2n2c3c(=O)n(C)c(=O)n(C)c3nc12`, the pEC50 is 4.60 and the pIC50 is 3.90.

Turning to `O=C(O)C1CCCCN1c1ccccc1[N+](=O)[O-]` (stereo not drawn), the result was inactive.

Regarding `CC(C)(C)OC(=O)N(CCCCN(CCCNC(=O)C(F)(F)F)C(=O)OC(C)(C)C)CCCNC(=O)C(F)(F)F`, the result was inactive.

On to `O=C1C=C(N2CCCC2)C=C(N2CCCC2)C1`, for which the pEC50 was less than 3.81 and the pIC50 was 4.09.

For `COC(=O)CSc1nnc(CSc2ccc(Cl)cc2)n1-c1ccccc1`, the pEC50 is less than 3.70 and the pIC50 was 3.98.

For the compound `COC(=O)c1ccccc1/C=C1\Cc2ccc(C)c(C)c2C1=O`, the pEC50 was less than 3.70 and the pIC50 is less than 3.70.

On to `O=c1cc(N2CCOCC2)n2c(ccc3ccccc32)n1`, for which the pEC50 was less than 3.70 and the pIC50 was 3.73.

For the compound `Cc1ccc2nc(C=Nc3ccccc3Cl)cc(C)c2c1`, the pEC50 is less than 3.70 and the pIC50 was 4.98.

Regarding `OC(NN=C1CCCC1)(C(F)(F)Cl)C(F)(F)Cl`, the pEC50 was less than 3.70 and the pIC50 was 3.77.

Regarding `CC(N)S(=O)(=O)O` (stereo not drawn), the pEC50 was less than 3.70 and the pIC50 was 3.80.

For `COc1ccc2nc3cc([N+](=O)[O-])ccc3c(Nc3ccc(S(=O)(=O)NC(C)=O)cc3)c2c1`, the pEC50 is less than 3.70 and the pIC50 was 4.12.

Turning to `C[C@]12CC[C@@H](O)C[C@H]1CC[C@@H]1[C@@H]2[C@@H](O)C[C@@]2(C)[C@H]1CC[C@]2(O)[C@@H](O)CO`, the pEC50 is less than 3.70 and the pIC50 is less than 3.70.

Turning to `Cc1c(C(=O)O)n2c(=S)[nH]nc2c2ccccc12`, the pEC50 was less than 3.70 and the pIC50 is less than 3.70.

For `Cc1c(C#N)c(=O)[nH]c(=O)n1CCN1CCN(C(=O)NCCCCCCNC(=O)N2CCN(CCn3c(C)c(C#N)c(=O)[nH]c3=O)CC2)CC1`, the outcome was inactive.

For `CCOCCOC(=O)C1CCC(=O)N1CN(C(C)=O)c1cc(OC)ccc1OC` (stereo not drawn), the result was inactive.

For the compound `COc1ccc(SCc2ccc(C(=O)O)cc2[N+](=O)[O-])cc1`, the pEC50 is less than 3.53 and the pIC50 was 3.79.

In the case of `N=c1nc(-c2ccccc2)nc2[nH]c3c4cccc5cccc(c3nc12)c54`, the pEC50 is less than 3.70 and the pIC50 is 4.17.

On to `Cc1nn2c(c1C#N)NNc1c-2sc(=N)nnc1=O`, for which the pEC50 was 4.50 and the pIC50 was 4.36.

Take `CCOC(=O)C1C(c2ccc(OC)cc2)c2c([nH]n(-c3ccccc3)c2=O)CC1(C)O` (stereo not drawn): the result was inactive.

On to `Fc1ccc2c3c([nH]c2c1)CCN(Cc1ccccc1)C3`, for which the pEC50 is less than 3.70 and the pIC50 was 4.42.

With `COCn1c(C)c(C)c2c(=O)oc(N(C)C)nc21`, the pEC50 is less than 3.70 and the pIC50 was 3.86.

With `COC1(OC)CC2C=C(S(=O)(=O)c3ccccc3)C1N(Cc1ccccc1)C2=O` (stereo not drawn), the outcome was inactive.

Consider `CCOC(=O)C(=O)Nc1ccccc1C`, for which the pEC50 is less than 4.46 and the pIC50 is less than 4.46.

With `CCCCCCCCCc1cc(O)c(O)cc1CCCCCCCCC`, the pEC50 is less than 4.00 and the pIC50 is 4.32.
